Reference: patent US8334382B2, “Substituted biaryl piperazinyl-pyridine analogues” (Neurogen Corporation, priority 2004, dated 2012)

These compounds were tested against T1, human capsaicin receptor (Homo sapiens, UniProt Q8NER1) (assay: Calcium mobilization assay, determination of antagonist activity). Details: capsaicin at EC50; cells expressing human capsaicin receptor; Example 6.
T1 construct: expressed in transfected cells; host or cells: HEK293, stably transfected with pBK-CMV construct
Format: cell-based
In short: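 HEK293 cells stably expressing full-length human TRPV1, loaded with Fluo-3 AM in KRH buffer pH 7.4, preincubated with compound (final 1-5 µM) in the dark at room temperature for 0.5-6 h, then stimulated with capsaicin at its EC50. FLIPR fluorescence gave IC50 as concentration halving the capsaicin response.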

T1 sequence (Q8NER1 whole entry): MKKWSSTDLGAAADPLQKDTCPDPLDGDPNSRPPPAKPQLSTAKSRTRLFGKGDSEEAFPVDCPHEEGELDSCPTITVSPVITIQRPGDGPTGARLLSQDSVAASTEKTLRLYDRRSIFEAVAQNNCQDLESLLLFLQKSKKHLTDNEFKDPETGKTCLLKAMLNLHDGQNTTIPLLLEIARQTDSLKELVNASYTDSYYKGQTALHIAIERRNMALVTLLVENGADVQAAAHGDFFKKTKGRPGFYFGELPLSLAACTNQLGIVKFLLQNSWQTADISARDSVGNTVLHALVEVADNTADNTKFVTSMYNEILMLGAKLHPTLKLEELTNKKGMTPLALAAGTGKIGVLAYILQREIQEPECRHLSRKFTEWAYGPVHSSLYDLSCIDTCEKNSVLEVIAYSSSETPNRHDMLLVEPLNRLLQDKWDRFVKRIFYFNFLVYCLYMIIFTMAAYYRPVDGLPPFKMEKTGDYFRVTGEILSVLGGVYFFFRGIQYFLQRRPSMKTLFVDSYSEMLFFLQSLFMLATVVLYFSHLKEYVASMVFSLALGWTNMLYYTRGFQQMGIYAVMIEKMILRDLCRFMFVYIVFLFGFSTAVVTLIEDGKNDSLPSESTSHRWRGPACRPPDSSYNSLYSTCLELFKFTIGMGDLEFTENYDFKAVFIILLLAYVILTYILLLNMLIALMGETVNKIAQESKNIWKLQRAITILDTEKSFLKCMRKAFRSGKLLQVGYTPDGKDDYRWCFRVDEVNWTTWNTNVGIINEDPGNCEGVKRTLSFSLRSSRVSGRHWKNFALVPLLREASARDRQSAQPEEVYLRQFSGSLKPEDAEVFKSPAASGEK

IC50, ≤ 1 µM:
CCOC(=O)c1cnc(N2CCN(c3cc(-c4ccncc4)nc(N4CCCC4C)n3)[C@H](C)C2)c(C)c1 (stereo partly drawn) [Example 60, 5-Methyl-6-{3-(R)-methyl-4-[2-(2-methyl-pyrrolidin-1-yl)-6-pyridin-4-yl-pyrimidin-4-yl] -piperazin-1-yl}-nicotinic acid ethyl ester]
CCOC(=O)c1cnc(N2CCN(c3cc(-c4ccnc(C(C)C)c4)nc(N4CCCC4C)n3)[C@H](C)C2)c(C)c1 (stereo partly drawn) [Example 61, 6-{4-[6-(2-Isopropyl-pyridin-4-yl)-2-(2-methyl-pyrrolidin-1-yl)-pyrimidin-4-yl]-3-(R)-methyl-piperazin-1-yl}-5-methyl-nicotinic acid ethyl ester]
CCOC(=O)c1cnc(N2CCN(c3cc(-c4ccc(F)cc4)nc(N(C)C)n3)[C@H](C)C2)c(C)c1 [Example 62, 6-{4-[2-Dimethylamino-6-(4-fluoro-phenyl)-pyrimidin-4-yl]-3-(R)-methyl-piperazin-1-yl}-5-methyl-nicotinic acid ethyl ester]
Cc1cc(CO)cnc1N1CCN(c2cc(-c3ccccc3)nc(N3CCCC3C)n2)[C@H](C)C1 (stereo partly drawn) [Example 63, (5-Methyl-6-{3-(R)-methyl-4-[2-(2-methyl-pyrrolidin-1-yl)-6-phenyl-pyrimidin-4-yl]-piperazin-1-yl}-pyridin-3-yl)-methanol]
Cc1cccc(-c2cc(N3CCN(c4ncc(CO)cc4C)C[C@H]3C)nc(N3CCCC3C)n2)c1 (stereo partly drawn) [Example 64, (5-Methyl-6-{3-(R)-methyl-4-[2-(2-methyl-pyrrolidin-1-yl)-6-m-tolyl-pyrimidin-4-yl]-piperazin-1-yl}-pyridin-3-yl)-methanol]
Cc1cc(CO)cnc1N1CCN(c2cc(-c3ccncc3)nc(N3CCCC3C)n2)[C@H](C)C1 (stereo partly drawn) [Example 65, (5-Methyl-6-{3-(R)-methyl-4-[2-(2-methyl-pyrrolidin-1-yl)-6-pyridin-4-yl-pyrimidin-4-yl]-piperazin-1-yl}-pyridin-3-yl)-methanol]
Cc1cc(CO)cnc1N1CCN(c2cc(-c3ccnc(C(C)C)c3)nc(N3CCCC3C)n2)[C@H](C)C1 (stereo partly drawn) [Example 66, (6-{4-[6-(2-Isopropyl-pyridin-4-yl)-2-(2-methyl-pyrrolidin-1-yl)-pyrimidin-4-yl]-3-(R)-methyl-piperazin-1-yl}-5-methyl-pyridin-3-yl)-methanol]
Cc1cc(CO)cnc1N1CCN(c2cc(-c3ccc(F)cc3)nc(N(C)C)n2)[C@H](C)C1 [Example 67, (6-{4-[2-Dimethylamino-6-(4-fluoro-phenyl)-pyrimidin-4-yl]-3-(R)-methyl-piperazin-1-yl}-5-methyl-pyridin-3-yl)-methanol]
Cc1cc(C(=O)O)cnc1N1CCN(c2cc(-c3ccccc3)nc(N3CCCC3C)n2)[C@H](C)C1 (stereo partly drawn) [Example 68, 5-Methyl-6-{3-(R)-methyl-4-[2-(2-methyl-pyrrolidin-1-yl)-6-phenyl-pyrimidin-4-yl]-piperazin-1-yl}-nicotinic acid]
Cc1cccc(-c2cc(N3CCN(c4ncc(C(=O)O)cc4C)C[C@H]3C)nc(N3CCCC3C)n2)c1 (stereo partly drawn) [Example 69, 5-Methyl-6-{3-(R)-methyl-4-[2-(2-methyl-pyrrolidin-1-yl)-6-m-tolyl-pyrimidin-4-yl]-piperazin-1-yl}-nicotinic acid]
Cc1cc(C(=O)O)cnc1N1CCN(c2cc(-c3ccncc3)nc(N3CCCC3C)n2)[C@H](C)C1 (stereo partly drawn) [Example 70, 5-Methyl-6-{3-(R)-methyl-4-[2-(2-methyl-pyrrolidin-1-yl)-6-pyridin-4-yl-pyrimidin-4-yl]-piperazin-1-yl}-nicotinic acid]
Cc1cc(CO)cnc1N1CCN(c2cc(-c3ccccc3)nc(N3CCCC3C)n2)CC1 (stereo not drawn) [Example 71, (5-Methyl-6-{4-[2-(2-methyl-pyrrolidin-1-yl)-6-phenyl-pyrimidin-4-yl]-piperazin-1-yl}-pyridin-3-yl)-methanol]
Cc1cccc(-c2cc(N3CCN(c4ncc(CO)cc4C)CC3)nc(N3CCCC3C)n2)c1 (stereo not drawn) [Example 72, (5-Methyl-6-{4-[2-(2-methyl-pyrrolidin-1-yl)-6-m-tolyl-pyrimidin-4-yl]-piperazin-1-yl}-pyridin-3-yl)-methanol]
Cc1cc(CO)cnc1N1CCN(c2cc(-c3ccncc3)nc(N3CCCC3C)n2)CC1 (stereo not drawn) [Example 73, (5-Methyl-6-{4-[2-(2-methyl-pyrrolidin-1-yl)-6-pyridin-4-yl-pyrimidin-4-yl]-piperazin-1-yl}-pyridin-3-yl)-methanol]
Cc1cc(CO)cnc1N1CCN(c2cc(-c3ccnc(C(C)C)c3)nc(N3CCCC3C)n2)CC1 (stereo not drawn) [Example 74, (6-{4-[6-(2-Isopropyl-pyridin-4-yl)-2-(2-methyl-pyrrolidin-1-yl)-pyrimidin-4-yl]-piperazin-1-yl}-5-methyl-pyridin-3-yl)-methanol]
Cc1cc(C(=O)O)cnc1N1CCN(c2cc(-c3ccccc3)nc(N3CCCC3C)n2)CC1 (stereo not drawn) [Example 75, 5-Methyl-6-{4-[2-(2-methyl-pyrrolidin-1-yl)-6-phenyl-pyrimidin-4-yl]-piperazin-1-yl}-nicotinic acid]
Cc1cccc(-c2cc(N3CCN(c4ncc(C(=O)O)cc4C)CC3)nc(N3CCCC3C)n2)c1 (stereo not drawn) [Example 76, 5-Methyl-6-{4-[2-(2-methyl-pyrrolidin-1-yl)-6-m-tolyl-pyrimidin-4-yl]-piperazin-1-yl}-nicotinic acid]
Cc1cc(C(=O)O)cnc1N1CCN(c2cc(-c3ccncc3)nc(N3CCCC3C)n2)CC1 (stereo not drawn) [Example 77, 5-Methyl-6-{4-[2-(2-methyl-pyrrolidin-1-yl)-6-pyridin-4-yl-pyrimidin-4-yl]-piperazin-1-yl}-nicotinic acid]
Cc1cc(C(=O)O)cnc1N1CCN(c2cc(-c3ccnc(C(C)C)c3)nc(N3CCCC3C)n2)CC1 (stereo not drawn) [Example 78, 6-{4-[6-(2-Isopropyl-pyridin-4-yl)-2-(2-methyl-pyrrolidin-1-yl)-pyrimidin-4-yl]-piperazin-1-yl}-5-methyl-nicotinic acid]
CCOC(=O)c1cnc(N2CCN(c3cc(-c4ccc(F)c(Cl)c4)ncn3)[C@H](C)C2)c(Cl)c1 [Example 79, 5-Chloro-6-{4-[6-(3-chloro-4-fluoro-phenyl)-pyrimidin-4-yl]-3-(R)-methyl-piperazin-1-yl}-nicotinic acid ethyl ester]
Cc1cc(C(=O)O)cnc1N1CCN(c2cc(-c3ccnc(C(C)C)c3)nc(N3CCCC3C)n2)[C@H](C)C1 (stereo partly drawn) [Example 80, 6-{4-[6-(2-Isopropyl-pyridin-4-yl)-2-(2-methyl-pyrrolidin-1-yl)-pyrimidin-4-yl]-3-(R)-methyl-piperazin-1-yl}-5-methyl-nicotinic acid]
Cc1cc(C(=O)O)cnc1N1CCN(c2cc(-c3ccc(F)cc3)nc(N(C)C)n2)[C@H](C)C1 [Example 81, 6-{4-[2-Dimethylamino-6-(4-fluoro-phenyl) - pyrimidin-4-yl]-3-(R)-methyl-piperazin-1-yl}-5-methyl-nicotinic acid]
Cc1cc(C(N)=O)cnc1N1CCN(c2cc(-c3ccccc3)nc(N3CCCC3C)n2)[C@H](C)C1 (stereo partly drawn) [Example 82, 5-Methyl-6-{3-(R)-methyl-4-[2-(2-methyl-pyrrolidin-1-yl)-6-phenyl-pyrimidin-4-yl]-piperazin-1-yl}-nicotinamide]
Cc1cc(C(N)=O)cnc1N1CCN(c2cc(-c3ccc(F)cc3)nc(N(C)C)n2)[C@H](C)C1 [Example 83, 6-{4-[2-Dimethylamino-6-(4-fluoro-phenyl)-pyrimidin-4-yl]-3-(R)-mcthyl-piperazin-1-yl}-5-methyl-nicotinamide]
Cc1cc(C(N)=O)cnc1N1CCN(c2cc(-c3ccccc3)nc(N(C)C)n2)[C@H](C)C1 [Example 84, 6-[4-(2-Dimethylamino-6-phenyl-pyrimidin-4-yl)-3-(R)-methyl-piperazin-1-yl]-5-methyl-nicotinamide]
Cc1cc(C(N)=O)cnc1N1CCN(c2cc(-c3ccncc3)nc(N(C)C)n2)[C@H](C)C1 [Example 85, 6-[4-(2-Dimethylamino-6-pyridin-4-yl-pyrimidin-4-yl)-3-(R)-methyl-piperazin-1-yl]-5-methyl-nicotinamide]
C[C@@H]1CN(c2ncc(C(N)=O)cc2Cl)CCN1c1cc(-c2ccc(F)c(Cl)c2)ncn1 [Example 86, 5-Chloro-6-{4-[6-(3-chloro-4-fluoro-phenyl)-pyrimidin-4-yl]-3-(R)-methyl-piperazin-1-yl}-nicotinamide]
Cc1cc(C(N)=O)cnc1N1CCN(c2cc(-c3ccccc3)nc(N3CCCC3C)n2)CC1 (stereo not drawn) [Example 87, 5-Methyl-6-{4-[2-(2-methyl-pyrrolidin-1-yl)-6-phenyl-pyrimidin-4-yl]-piperazin-1-yl}-nicotinamide]
Cc1cccc(-c2cc(N3CCN(c4ncc(C(N)=O)cc4C)CC3)nc(N3CCCC3C)n2)c1 (stereo not drawn) [Example 88, 5-Methyl-6-{4-[2-(2-methyl-pyrrolidin-1-yl)-6-m-tolyl-pyrimidin-4-yl]-piperazin-1-yl}-nicotinamide]
Cc1cc(C(N)=O)cnc1N1CCN(c2cc(-c3ccncc3)nc(N3CCCC3C)n2)CC1 (stereo not drawn) [Example 89, 5-Methyl-6-{4-[2-(2-methyl-pyrrolidin-1-yl)-6-pyridin-4-yl-pyrimidin-4-yl]-piperazin-1-yl}-nicotinamide]
